Results as given in PMC4718634, “Murine GPRC6A Mediates Cellular Responses to L-Amino Acids, but Not Osteocalcin Variants” (PLoS ONE, 2016).
Bridge positions count the residues as written; N and C are the ends. Ends that are not written are not given here.

Tests used:
mGPRC6A (mouse GPRC6A) = biological target: T1, mGPRC6A (mouse GPRC6A) (Mus musculus, UniProt Q8K4Z6); assay: Ca^2+i mobilisation, FlpIn-TREx-HEK293-mGPRC6A cells; type: cell-based
T1 sequence (Q8K4Z6 21-928): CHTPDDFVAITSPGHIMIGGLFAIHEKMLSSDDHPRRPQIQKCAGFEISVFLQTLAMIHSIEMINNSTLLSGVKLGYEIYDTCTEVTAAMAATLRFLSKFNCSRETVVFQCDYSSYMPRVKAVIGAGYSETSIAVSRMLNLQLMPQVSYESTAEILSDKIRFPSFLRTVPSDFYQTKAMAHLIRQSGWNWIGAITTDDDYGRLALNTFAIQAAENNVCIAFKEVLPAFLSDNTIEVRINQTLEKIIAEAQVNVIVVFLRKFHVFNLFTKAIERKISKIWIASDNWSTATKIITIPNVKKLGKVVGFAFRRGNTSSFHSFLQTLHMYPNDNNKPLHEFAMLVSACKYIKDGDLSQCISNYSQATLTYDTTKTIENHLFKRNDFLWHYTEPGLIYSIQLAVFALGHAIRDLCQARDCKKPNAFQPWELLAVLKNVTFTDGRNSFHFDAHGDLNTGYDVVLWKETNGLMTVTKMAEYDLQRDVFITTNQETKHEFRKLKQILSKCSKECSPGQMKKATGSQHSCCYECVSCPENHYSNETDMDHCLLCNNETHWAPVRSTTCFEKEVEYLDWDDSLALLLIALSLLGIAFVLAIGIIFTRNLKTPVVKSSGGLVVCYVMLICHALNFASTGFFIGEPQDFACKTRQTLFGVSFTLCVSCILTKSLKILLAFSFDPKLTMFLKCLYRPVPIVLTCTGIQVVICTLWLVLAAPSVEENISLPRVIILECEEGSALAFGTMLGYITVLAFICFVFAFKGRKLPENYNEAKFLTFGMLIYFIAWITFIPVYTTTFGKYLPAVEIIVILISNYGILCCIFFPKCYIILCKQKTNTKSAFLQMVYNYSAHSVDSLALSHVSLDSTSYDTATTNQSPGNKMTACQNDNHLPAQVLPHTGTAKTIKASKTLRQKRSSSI
Procedure: pcDNA 5/FRT/TO constructs were isogenically integrated into a FlpIn-TREx-HEK293 cell line (Life Technologies). FlpIn-TREx-HEK293-mGPRC6A and FlpIn-TREx-HEK293-hGPRC6A cells were then selected using 600 μg/ml hygromycin and 5 μg/ml blasticidin and grown in culture medium consisting of Dulbecco’s Modified Eagle Medium (DMEM), supplemented with 10% (v/v) foetal bovine serum (FBS) at 37°C in 5% CO2 and were sub-cultured in a 1:3 ratio every 3–4 days. Cells were cultured overnight in the presence of 1 μg/ml tetracycline to induce GPRC6A expression. […] 48 h after transfection, cells were selected using 3 μg/ml puromycin and grown as above.
FlpIn-TREx-HEK293-mGPRC6A cells were seeded into T75 flasks at 70% confluency. Cells were transfected with 15μg of plasmid DNA (Gαq or GαqG66D) with Lipofectamine LTX according to manufacturer's instructions, then incubated for 24h at 37°C in 5% CO2. Cells were plated into 96-well plates (10^5 cells/well) and equilibrated at 37°C in 5% CO2 for 4-6h to adhere, whereupon cells were serum starved overnight at 37°C in 5% CO2. For the assay, cells were washed twice in Ca^2+ assay buffer (150 mM NaCl, 2.6 mM KCl, 1.2 mM MgCl2, 10 mM dextrose, 10 mM HEPES, 2.2 mM CaCl2, 0.5% (w/v) BSA and 4 mM probenecid; pH 7.4). Buffer was then replaced with Ca^2+ assay buffer containing 1μM Fluo-4-AM and incubated for 1h at 37°C in 5% CO2. Cells were washed twice more and replaced with Ca^2+ assay buffer at 37°C. Serial dilutions of test agonists were added by injection in a Flexstation™ (Molecular Devices) and fluorescence was measured at 485nm excitation and 520nm emission wavelengths. Agonist responses were normalised to the peak of response to 100 μM ATP.
(§1) Data for all HEK293 assays represent the mean ± SEM of at least three independent experiments (except cell impedance, n = 2). For GLP-1 release, the data represent mean ± SEM of three to five independent experiments (except for OCN, wash; n = 2). For insulin release assays, data represent the mean ± SEM of three independent experiments (except for islet studies; n = 2). Insulin release data were normalised to the response to vehicle in either low or high [glucose]. Statistical analysis for GLP-1 release data were performed by one-way ANOVA, followed by Sidak’s multiple comparisons test (treating wash / no wash datasets separately). Statistical analyses for insulin release data were performed by two-way ANOVA (with [glucose] and drug treatment as group variables), followed by Sidak’s multiple comparisons test. Where only high [glucose] groups were evaluated, statistical analysis was by one-way ANOVA followed by Sidak’s multiple comparisons test.

TC6 = details: endogenous; ref [11] (supplement list); cited from earlier work
Excerpt: (§2) Supplement pone.0146846.s004.docx, table 1 | column: Functional assay

PC-3 cells = details: endogenous; ref [18] (supplement list); cited from earlier work
Excerpt: as §2

22RV1 / PC-3 = details: endogenous; ref [9] (supplement list); cited from earlier work
Excerpt: as §2

hC6A = details: ref [9] (supplement list); cited from earlier work
Excerpt: as §2

Unknown species GPRC6A = details: ref [11] (supplement list); cited from earlier work
Excerpt: as §2

mC6A = details: ref [18] (supplement list); cited from earlier work
Excerpt: as §2

mouse pancreatic islets = assay: Insulin release from mouse pancreatic islets; type: cell-based; details: L-arginine 20 mM; *P < 0.05 vs Vehicle; n = 2; S3 Fig B
Procedure: Islets were collagenase-isolated from mice (10 x C57Bl/6; 12–13 weeks; Charles River) and incubated overnight in RPMI (with 10% FBS (v/v), 10 mM HEPES, 100 U/ml penicillin, 100 μg/ml streptomycin, sodium pyruvate and 10 mM glucose) at 37°C in 5% CO2. Islets were seeded into a 96-well plate (4 / well) in Kreb’s buffer containing 2.8 mM glucose and washed twice with the same buffer. 200 μl test drugs were added in Kreb’s buffer with the required concentration of glucose and incubated at 37°C in 5% CO2 for 90 min. The plate was centrifuged for 10 s at 200 g, supernatant recovered and insulin levels detected as described above. This protocol was approved by the IDRS (Institut de Recherches Servier) Institutional Animal Care and Use Committee.
as §1, with “Concentration-response data were analysed using a three or four parameter logistic function (Motulsky & Christopoulos, 2004) to generate estimates of agonist potency (LogEC50). Data” for “Data”

GPRC6A [1] = test system: GPRC6A; design: method as in PMID 15576628; details: chimera with goldfish 5.24 receptor and full length GPRC6A; ref [1]; cited from earlier work
GPRC6A [2] = details: HEK293 cells recombinantly expressing GPRC6A; ref [8], [10]–[12]; cited from earlier work
Excerpt: Additional interest in GPRC6A has emerged due to several studies reporting that it mediates the metabolic and endocrine effects of the de-carboxylated form of the osteoblast-derived peptide, osteocalcin (OCN).

STC-1 cell line = details: ref [22]; cited from earlier work
Excerpt: Given the range of OCN variants profiled, we propose that species and/or carboxylation status is unlikely to be a cause of the lack of activity in our assays. Other potential explanations are that the species of GPRC6A is critical or that HEK293 cells lack the necessary scaffolding and/or signalling proteins found in cells endogenously expressing GPRC6A. Unfortunately, human GPRC6A was not expressed at the cell surface in our cells, precluding a study of its pharmacology. However, we identified a range of immortalised murine entero-endocrine and pancreatic β-cell lines that express Gprc6a mRNA ...

Row | Compound | EC50 (mGPRC6A (mouse GPRC6A)) | potency at murine GPRC6A (calcium and inositol phosphate, words) (mGPRC6A (mouse GPRC6A); calcium mobilisation and inositol phosphate accumulation, Discussion) | rank order of potency, Ca^2+ mobilisation (mGPRC6A (mouse GPRC6A); co-expressing GαqG66D, Fig 1D) | pERK1/2, pPKD1 response (TC6) | pERK1/2 response (PC-3 cells) | PSA, Runx2 expression response (22RV1 / PC-3) | pERK1/2 response (22RV1 / PC-3) | pERK1/2 response (hC6A) | pERK1/2 response (Unknown species GPRC6A) | cAMP response (mC6A) | glucose-sensitive insulin secretion, L-arginine (mouse pancreatic islets) | agonist response of GPRC6A (GPRC6A [1]) | ERK1/2 phosphorylation (GPRC6A [2]) | cAMP accumulation (GPRC6A [2]) | GLP-1 release (STC-1 cell line)
1 | N=C(N)NCCC[C@H](N)C(=O)O [L-arginine] | 15.8 µM | most potent agonists | L-ornithine > L-arginine = L-lysine | pERK1/2, pPKD1 – response to OCN, L-Arg | pERK1/2 – response to Testosterone, L-Arg | pERK1/2 – response to Ca^2+, ZnCl2, OCN, Arginine, Testosterone-BSA Proliferation – response to Ca^2+, OCN PSA, Runx2 expression – response to OCN, Arg, R1881 Chemotaxis (22RV1) – response to Ca^2+, OCN | pERK1/2 – response to Ca^2+, ZnCl2, OCN, Arginine, Testosterone-BSA Proliferation – response to Ca^2+, OCN PSA, Runx2 expression – response to OCN, Arg, R1881 Chemotaxis (22RV1) – response to Ca^2+, OCN | pERK1/2 – response to Ca^2+, ZnCl2, OCN, Arginine, Testosterone-BSA | pERK1/2 - response to Ca^2+, L-Arg, OCN. | cAMP – response to Testosterone, L-Arg pERK1/2 – response to Testosterone | significantly increased GSIS | mediates responses to L-amino acids |  |  | 
2 | de-carboxylated OCN: de-carboxylated form of the osteoblast-derived peptide, osteocalcin (YLYQWLGAPVPYPDPLEPRREVCELNPDCDELADHIGFQEAYRRFYGPV; disulfide 23-29 (inferred); not fully specified; printed as YLYQWLGAPVPYPDPLEPRREVCELNPDCDELADHIGFQEAYRRFYGPV-NH2/-COOH; ends not checked; UniProt P02818 52-100, looked up) |  |  |  |  |  |  |  |  |  |  |  |  | can stimulate cAMP accumulation or ERK1/2 phosphorylation | can stimulate cAMP accumulation or ERK1/2 phosphorylation | evoke GLP-1 release
